Test results published in patent US20030073618A1, “Compounds comprising disulfide-containing peptides and nitrogenous bases, and medical uses thereof” (priority 2001, published 2003).
Read-outs that look alike come from different tables or passages of the source. Marks after values point to notes of the source that are not given here.

Columns and labels:
ATP-ase/helicase = ATP-ase/helicase activity in lysate of donor lymphocyte nuclei
[1] = system: ATP-ase/helicase (NS3 of hepatitis C virus)
hepatitis C virus (HCV) = test: Efficacy study in chronic viral hepatitis C, 74 patients (Tables 54-55)
hepatitis B virus (HBV) = test: Efficacy study in acute viral hepatitis B with severe course, 35 patients (Tables 50-53); format: in vivo, human
Text: State of patient upon completion of treatment.

[2] = system: mycobacterium tuberculosis; conditions: for CD4+ / CD4/CD8 / CD8+ / IL-1 / IL-4 / IL-6 / IL-8 / IL-12 / Lymphocytes: blood immune test; for ESR / Erythrocytes / Hemoglobin / Leukocytes / Monocytes / Platelets / Segmented neutrophils / Stab neutrophils: general blood test
[3] = 100 μg/ml, 100 pg M13 phage DNA
[4] = 100 μg/ml, 200 pg M13 phage DNA
[5] = compared with GSSG-I and GSSG-IMP
[6] = 100 μg/ml, 500 pg M13 phage DNA
[7] = 100 μg/ml, 800 pg M13 phage DNA
[8] = month 2 (1 month after treatment)
[9] = month 4 (3 months after treatment)

## N[C@@H](CCC(=O)N[C@@H](CSSC[C@H](NC(=O)CC[C@H](NP(=O)(O)OC[C@H]1O[C@@H](n2ccc(=O)[nH]c2=O)[C@H](O)[C@@H]1O)C(=O)O)C(=O)NCC(=O)[O-])C(=O)NCC(=O)[O-])C(=O)O.[Na+].[Na+] [GSSG-UMP]
ATP-ase/helicase; 10 μg/ml, 5 pg M13 phage DNA
  Radioactive fraction, high-molecular: 16 ± 1/
  Radioactive fraction, low-molecular: 84 ± 5
ATP-ase/helicase; 10 μg/ml, 20 pg M13 phage DNA
  Radioactive fraction, high-molecular: 20 ± 2/
  Radioactive fraction, low-molecular: 80 ± 5
ATP-ase/helicase; 10 μg/ml, 50 pg M13 phage DNA
  Radioactive fraction, high-molecular: 41 ± 32/
  Radioactive fraction, low-molecular: 59 ± 5
ATP-ase/helicase; 10 μg/ml, 100 pg M13 phage DNA
  Radioactive fraction, high-molecular: 72 ± 4.5/
  Radioactive fraction, low-molecular: 28 ± 2.5
ATP-ase/helicase; 10 μg/ml, 200 pg M13 phage DNA
  Radioactive fraction, high-molecular: 92 ± 7/
  Radioactive fraction, low-molecular: 8 ± 2
ATP-ase/helicase; 50 μg/ml, 5 pg M13 phage DNA
  Radioactive fraction, high-molecular: 32.5 ± 1.5*/
  Radioactive fraction, low-molecular: 67.5 ± 5.5
ATP-ase/helicase; 50 μg/ml, 20 pg M13 phage DNA
  Radioactive fraction, high-molecular: 37.5 ± 2.5*/
  Radioactive fraction, low-molecular: 62.5 ± 5.5
ATP-ase/helicase; 50 μg/ml, 50 pg M13 phage DNA
  Radioactive fraction, high-molecular: 59 ± 5*/
  Radioactive fraction, low-molecular: 41 ± 4
ATP-ase/helicase; 50 μg/ml, 100 pg M13 phage DNA
  Radioactive fraction, high-molecular: 80 ± 6/
  Radioactive fraction, low-molecular: 20 ± 3.5
ATP-ase/helicase; 50 μg/ml, 200 pg M13 phage DNA
  Radioactive fraction, high-molecular: 90.5 ± 6/
  Radioactive fraction, low-molecular: 9.5 ± 1.5
ATP-ase/helicase; 100 μg/ml, 5 pg M13 phage DNA
  Radioactive fraction, high-molecular: 42 ± 3*/
  Radioactive fraction, low-molecular: 58 ± 4
ATP-ase/helicase; 100 μg/ml, 20 pg M13 phage DNA
  Radioactive fraction, high-molecular: 49.5 ± 4*/
  Radioactive fraction, low-molecular: 50.5 ± 5
ATP-ase/helicase; 100 μg/ml, 50 pg M13 phage DNA
  Radioactive fraction, high-molecular: 67 ± 5*/
  Radioactive fraction, low-molecular: 33 ± 3.5
ATP-ase/helicase; [3]
  Radioactive fraction, high-molecular: 84 ± 6.5/
  Radioactive fraction, low-molecular: 16 ± 1.5
ATP-ase/helicase; [4]
  Radioactive fraction, high-molecular: 92.5 ± 8/
  Radioactive fraction, low-molecular: 7.5 ± 2
ATP-ase/helicase; [5]
  Relative inhibition of ATP-ase/helicase activity: inhibits ATP-ase/helicase activity most of all
[1]; 10 μg/ml, 20 pg M13 phage DNA
  Radioactive fraction, high-molecular: 16 ± 1/
  Radioactive fraction, low-molecular: 84 ± 5
[1]; 10 μg/ml, 50 pg M13 phage DNA
  Radioactive fraction, high-molecular: 17.5 ± 1.5/
  Radioactive fraction, low-molecular: 82.5 ± 8.5
[1]; 10 μg/ml, 200 pg M13 phage DNA
  Radioactive fraction, high-molecular: 45 ± 4/
  Radioactive fraction, low-molecular: 55 ± 5
[1]; 10 μg/ml, 500 pg M13 phage DNA
  Radioactive fraction, high-molecular: 73.5 ± 5.5/
  Radioactive fraction, low-molecular: 27.5 ± 1.5
[1]; 10 μg/ml, 800 pg M13 phage DNA
  Radioactive fraction, high-molecular: 92.0 ± 5/
  Radioactive fraction, low-molecular: 8 ± 1
[1]; 50 μg/ml, 20 pg M13 phage DNA
  Radioactive fraction, high-molecular: 32 ± 2.5*/
  Radioactive fraction, low-molecular: 78 ± 7
[1]; 50 μg/ml, 50 pg M13 phage DNA
  Radioactive fraction, high-molecular: 34 ± 3*/
  Radioactive fraction, low-molecular: 66 ± 7
[1]; 50 μg/ml, 200 pg M13 phage DNA
  Radioactive fraction, high-molecular: 51 ± 4/
  Radioactive fraction, low-molecular: 49 ± 5
[1]; 50 μg/ml, 500 pg M13 phage DNA
  Radioactive fraction, high-molecular: 74 ± 5/
  Radioactive fraction, low-molecular: 26 ± 2
[1]; 50 μg/ml, 800 pg M13 phage DNA
  Radioactive fraction, high-molecular: 92.5 ± 6.5/
  Radioactive fraction, low-molecular: 7.5 ± 1
[1]; 100 μg/ml, 20 pg M13 phage DNA
  Radioactive fraction, high-molecular: 36 ± 2*/
  Radioactive fraction, low-molecular: 64 ± 5
[1]; 100 μg/ml, 50 pg M13 phage DNA
  Radioactive fraction, high-molecular: 41 ± 4*/
  Radioactive fraction, low-molecular: 59 ± 6
[1]; [4]
  Radioactive fraction, high-molecular: 57.5 ± 7.5*/
  Radioactive fraction, low-molecular: 42.5 ± 3.5
[1]; [6]
  Radioactive fraction, high-molecular: 75.5 ± 6.5/
  Radioactive fraction, low-molecular: 24.5 ± 3.5
[1]; [7]
  Radioactive fraction, high-molecular: 92.5 ± 6.5/
  Radioactive fraction, low-molecular: 7.5 ± 1
[1]; [5]
  Relative inhibition of ATP-ase/helicase activity: maximal inhibitory effect

## Nc1ccn([C@H]2CC[C@@H](CO)O2)c(=O)n1 [Zalzitabin]
Hepatitis C virus (HCV); Baseline (before treatment)
  PCR (%) in Chronic HCV Infection: 100%
Hepatitis C virus (HCV); month 1 (after treatment)
  PCR (%) in Chronic HCV Infection: **73.9* %
Hepatitis C virus (HCV); [8]
  PCR (%) in Chronic HCV Infection: **56.5* %
Hepatitis C virus (HCV); [9]
  PCR (%) in Chronic HCV Infection: **60.9* %

## C[C@]12C=CC(=O)C=C1CC[C@@H]1[C@@H]2[C@@H](O)C[C@@]2(C)[C@H]1CC[C@]2(O)C(=O)CO [Prednisolone]
Hepatitis B virus (HBV); Baseline (before treatment)
  ALT in Severe HBV Infection: 1657.9 ± 96.5 U/L
  Bilirubin in Severe HBV Infection: 313.9 ± 62.6 µmol/L
  HbsAg in Severe HBV Infection: 189.7 ± 20.4 ng/mL
  PCR (%) in Severe HBV Infection: 100%
Hepatitis B virus (HBV); month 1 (after treatment)
  ALT in Severe HBV Infection: **293.8 ± 18.8 U/L
  Bilirubin in Severe HBV Infection: **86.9 ± 21.9 μmole/L
  HbsAg in Severe HBV Infection: **97.8 ± 18.6 ng/mL
  PCR (%) in Severe HBV Infection: **66.7%
Hepatitis B virus (HBV); [8]
  ALT in Severe HBV Infection: **145.4 ± 15.5 U/L
  Bilirubin in Severe HBV Infection: **31.4 ± 14.6 μmole/L
  HbsAg in Severe HBV Infection: **87.7 ± 12.7 ng/mL
  PCR (%) in Severe HBV Infection: **66.7%
Hepatitis B virus (HBV); [9]
  ALT in Severe HBV Infection: **65.3 ± 15.7 U/L
  Bilirubin in Severe HBV Infection: **26.84 ± 13.99 μmole/L
  HbsAg in Severe HBV Infection: **76.6 ± 15.4 ng/mL
  PCR (%) in Severe HBV Infection: **53.3%

## Cc1cn([C@H]2C[C@H](N=[N+]=[N-])[C@@H](CO)O2)c(=O)[nH]c1=O [Zidovudine]
Hepatitis C virus (HCV); Baseline (before treatment)
  PCR (%) in Chronic HCV Infection: 100%
Hepatitis C virus (HCV); month 1 (after treatment)
  PCR (%) in Chronic HCV Infection: **54.5* %
Hepatitis C virus (HCV); [8]
  PCR (%) in Chronic HCV Infection: **63.6* %
Hepatitis C virus (HCV); [9]
  PCR (%) in Chronic HCV Infection: **59.1* %

## N[C@@H](CCC(=O)N[C@@H](CSSC[C@H](NC(=O)CC[C@H](NP(=O)(O)OC[C@H]1O[C@@H](n2cnc3c(=O)[nH]cnc32)[C@H](O)[C@@H]1O)C(=O)O)C(=O)NCC(=O)[O-])C(=O)NCC(=O)[O-])C(=O)O.[Li+].[Li+] [Example 16]
[2]; 19.12.98
  CD4+: 860
  CD4/CD8: 1.53
  CD8+: 563
  IL-1: 46
  IL-4: 37
  IL-6: 44
  IL-8: 50
  IL-12: 39
  Lymphocytes: 1400
  ESR: 13
  Erythrocytes: 4.3
  Hemoglobin: 132
  Leukocytes: 5.2
  Monocytes: 2
  Platelets: 230
  Segmented neutrophils: 51
  Stab neutrophils: 1
[2]; 20.10.98
  CD4+: 199
  CD4/CD8: 0.56
  CD8+: 357
  IL-1: 22
  IL-4: 32
  IL-6: 16
  IL-8: 23
  IL-12: 14
  Lymphocytes: 832
  ESR: 50
  Erythrocytes: 3.7
  Hemoglobin: 108
  Leukocytes: 9.9
  Monocytes: 12
  Platelets: 260
  Segmented neutrophils: 57
  Stab neutrophils: 12
[2]; 21.01.99
  CD4+: 892
  CD4/CD8: 1.50
  CD8+: 594
  IL-1: 39
  IL-4: 34
  IL-6: 39
  IL-8: 48
  IL-12: 47
  Lymphocytes: 1680
  ESR: 11
  Erythrocytes: 4.2
  Hemoglobin: 128
  Leukocytes: 6.8
  Monocytes: 5
  Platelets: 210
  Segmented neutrophils: 50
  Stab neutrophils: 3
[2]; 21.11.98
  CD4+: 527
  CD4/CD8: 1.25
  CD8+: 422
  IL-1: 29
  IL-4: 30
  IL-6: 29
  IL-8: 45
  IL-12: 28
  Lymphocytes: 1350
  ESR: 27
  Erythrocytes: 4.2
  Hemoglobin: 128
  Leukocytes: 5.2
  Monocytes: 4
  Platelets: 210
  Segmented neutrophils: 53
  Stab neutrophils: 6
